The values that follow come from patent publication US20110294732A1, “ERYTHROPOLETIN COMPLEMENTATION OR REPLACEMENT” (Universite De Strasbourg, priority 2007, published 2011).

SMILES strings stand for the structures.

One data set relates to circulating RBC. The data set is described as follows: P50 shift of circulating RBC after oral administration in drinking water. Format: in vivo, C57BL/6 mice. On the procedure: In experiments conducted in vivo in which ITPP was administered orally, ITPP was dissolved in drinking (not deionized) water at a 20 g/L-concentration (=27 mM, pH 7.0) and offered for drinking ad libitum. A significant shift of the P50 value of circulating RBCs was observed.
Twelve C57BL/6 mice drank ITPP over 4 days (about 25 ml/24 hrs). Seven Control mice drank either pure water (three mice), or a solution of IHP (inositol hexaphosphate without the internal pyrophosphate rings) at the same concentration and pH as ITPP (4 mice). […] Blood was collected from the tail vein of the 12 C57BL/6 mice on day 0 (before treatment started), 1, 2, 4, 6, 7, 8, 10, 11 and 12, in order to measure P50 values. […] Oral application of ITPP caused significant right shifts of P50 (up to 31%) in mice.
The 12 mice were observed over 12 days, the P50 values of their circulating RBC were measured almost daily. […] It appears that all mice ingesting the aqueous solution of ITPP present a shift of the P50 value of their circulating RBC, albeit with individual differences. FIG. 8 illustrates the individual differences in the P50 shift induced in the mice by ingestion of the aqueous solution of ITPP.

A short description of data set [1]: Blood counts of mice after oral ingestion. Format: in vivo. The note with it: single mouse, oral in water for 4 days, day 7; day 0 count 8.9-11.8. An excerpt: Blood from mice that ingested ITPP or IHP in water (for 4 days) or water only was collected on day 0, 7 and 11, in order to assess any differences in the blood count (and the amount of erythropoietin in the sera) of treated and control mice. […] The amount of blood from the other mice was not sufficient to determine the blood count.

In data set [2] the target is T1, hemoglobin (Homo sapiens, UniProt P68871). As to conditions: relative to DPG; cited from earlier work.
T1 sequence (P68871 2-147 limits assumed): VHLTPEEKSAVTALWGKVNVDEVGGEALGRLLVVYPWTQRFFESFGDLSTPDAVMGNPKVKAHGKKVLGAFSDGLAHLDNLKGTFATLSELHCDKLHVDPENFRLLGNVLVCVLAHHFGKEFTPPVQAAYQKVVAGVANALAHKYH
T1 sequence (P69905 2-142 partner limits assumed): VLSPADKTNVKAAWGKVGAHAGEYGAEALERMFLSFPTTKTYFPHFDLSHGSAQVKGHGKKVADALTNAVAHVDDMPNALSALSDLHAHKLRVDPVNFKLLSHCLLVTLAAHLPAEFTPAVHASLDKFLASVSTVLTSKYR
Data set [3] has as its target T1, hemoglobin. As to conditions: pH 7.4 and 37 degrees C; cited from earlier work.
Data set [4] in a line: Blood counts of mice after oral ingestion. As to conditions: single mouse, oral in water for 4 days; day 0 count 8.9-11.8. Format: in vivo.
A short description of the next data set: Solubility of ITPP salts. Format: physicochemical. An excerpt:
(§1) Alternatively, ITPP-Ca can be produced by the addition of equimolar amounts of CaCl2 with an aqueous solution of ITPP-Na. The resulting mixture gives ITPP-Ca, which contains NaCl as an impurity.

The next data set in a line: Toxicity of ITPP salts. The note with it: compared with the calcium salt / mixed salt.
Text: as §1

Turning to `O=P(O)(O)O[C@H]1[C@H](OP(=O)(O)O)[C@@H](OP(=O)(O)O)[C@H](OP(=O)(O)O)[C@@H](OP(=O)(O)O)[C@H]1OP(=O)(O)O` [IHP, Inositol hexaphosphate, reference compound], the “right shift of P50” value in the data set on circulating RBC (oral, 20 g/L (27 mM) in drinking water over 4 days) was “complete absence of shift”. The “P50 day 7, %” value with circulating RBC (single mouse, oral in water for 4 days, day 7) is 3%. Moreover, the “P50 day 10, %” value in the data set with circulating RBC (single mouse, oral in water for 4 days, day 10) is given as 0%. The “RBC × 10^6/mm^3 (day 7)” value in data set [1] is reported as 9.6 10^6/mm^3. The “affinity to hemoglobin, higher than DPG” value on hemoglobin [2] was 1000 fold. The “P50 of hemoglobin increased up to” value at hemoglobin [3] is no more than 96.4 mm Hg. Further, the “RBC × 10^6/mm^3” value in data set [4] is 10.77 10^6/mm^3.

As to `O=P1([O-])OC2C3OP(=O)([O-])OP(=O)([O-])OC3C3OP(=O)([O-])OP(=O)([O-])OC3C2OP(=O)([O-])O1.[Ca+2].[Ca+2].[Ca+2]` (stereo not drawn) [pure calcium salt of ITPP, Calcium Salt of myo-inositol 1,6:2,3:4,5-tripyrophosphate], in “Solubility of ITPP salts”, the solubility result is “relatively insoluble”.

`O=P1([O-])OC2C3OP(=O)([O-])OP(=O)([O-])OC3C3OP(=O)([O-])OP(=O)([O-])OC3C2OP(=O)([O-])O1.[Na+].[Na+].[Na+].[Na+].[Na+].[Na+]` (stereo not drawn) [pure sodium salt, myo-inositol tripyrophosphate]: the toxicity entry in “Toxicity of ITPP salts” is “relatively more toxic”.
